Source: patent US8017606B2, “Quinoline derivatives as antibacterial agents” (Janssen Pharmaceutica NV, priority 2005, dated 2011)
≈ marks a conversion by molar mass, not a printed value.

Experiments:
Assay in all cases: Microtitre plate assay, IC90 determination
Format in all cases: cell-based
[1] = system: Staphylococcus aureus (ATCC25923); conditions: 90% inhibitory concentration for bacterial growth, 37° C., resazurin fluorescence, read-out: IC90 (μg/ml) STA 25923
Protocol: (§1) The bacteria used in this study were grown overnight in flasks containing 100 ml Mueller-Hinton Broth (Becton Dickinson—cat. no. 275730) in sterile de-ionized water, with shaking, at 37° C. Stocks (0.5 ml/tube) were stored at −70° C. until use. Bacteria titrations were performed in microtiter plates and colony forming units (CFUs) were determined. In general, an inoculum level of approximately 100 CFUs was used for susceptibility testing.
(§2) Anti Bacterial Susceptibility Testing: IC90 Determination
(§3) Flat-bottom, sterile 96-well plastic microtiter plates were filled with 180 μl of sterile deionized water, supplemented with 0.25% BSA. Subsequently, stock solutions (7.8×final test concentration) of compounds were added in 45 μl volumes in column 2 Serial five-fold dilutions (45 μl in 180 μl) were made directly in the microtiter plates from column 2 to reach column 11. Untreated control samples with (column 1) and without (column 12) inoculum were included in each microtiter plate. Depending on the bacteria type, approximately 10 to 60 CFU per well of bacteria inoculum (100 TCID50), in a volume of 100 μl in 2.8× Mueller-Hinton broth medium, was added to the rows A to H, except column 12. The same volume of broth medium without inoculum was added to column 12 in row A to H. The cultures were incubated at 37° C. for 24 hours under a normal atmosphere (incubator with open air valve and continuous ventilation). At the end of incubation, one day after inoculation, the bacterial growth was quantitated fluorometrically. Therefore resazurin (0.6 mg/ml) was added in a volume of 20 μl to all wells […], and the plates were re-incubated overnight. A change in colour from blue to pink indicated the growth of bacteria.
(§4) The fluorescence was read in a computer-controlled fluorometer (Cytofluor Biosearch) at an excitation wavelength of 530 nm and an emission wavelength of 590 nm. The % growth inhibition achieved by the compounds was calculated according to standard methods. The IC90 (expressed in μg/ml) was defined as the 90% inhibitory concentration for bacterial growth.

[2] = system: Staphylococcus aureus (ATCC43300); conditions: 90% inhibitory concentration for bacterial growth, 37° C., resazurin fluorescence, read-out: IC90 (μg/ml) STA 43300
Protocol: as §1, §2, §3, §4

[3] = system: Pseudomonas aeruginosa (ATCC27853); conditions: 90% inhibitory concentration for bacterial growth, 37° C., resazurin fluorescence, read-out: IC90 (μg/ml) PAE 27853
Protocol: as §1, §2, §3, §4

[4] = system: Streptococcus mutans (ATCC33402); conditions: 90% inhibitory concentration for bacterial growth, 37° C., resazurin fluorescence, read-out: IC90 (μg/ml) SMU 33402
Protocol: as §1, §2, §3, §4

[5] = system: Staphylococcus aureus (ATCC29213); conditions: 90% inhibitory concentration for bacterial growth, 37° C., resazurin fluorescence, read-out: IC90 (μg/ml) STA 29213
Protocol: as §1, §2, §3, §4

[6] = system: Enterococcus faecalis (ATCC29212); conditions: 90% inhibitory concentration for bacterial growth, 37° C., resazurin fluorescence, read-out: IC90 (μg/ml) EFA 29212
Protocol: as §1, §2, §3, §4

[7] = system: Streptococcus pyogens (ATCC8668); conditions: 90% inhibitory concentration for bacterial growth, 37° C., resazurin fluorescence, read-out: IC90 (μg/ml) SPY 8668
Protocol: as §1, §2, §3, §4

[8] = system: methicilline resistant Staphylococcus aureus (MRSA) (a clinical isolate from the University of Antwerp); conditions: 90% inhibitory concentration for bacterial growth, 37° C., resazurin fluorescence, read-out: IC90 (μg/ml) STA RMETHIC
Protocol: as §1, §2, §3, §4

[9] = system: Listeria monocytogenes (ATCC49594); conditions: 90% inhibitory concentration for bacterial growth, 37° C., resazurin fluorescence, read-out: IC90 (μg/ml) LMO 49594
Protocol: as §1, §2, §3, §4

[10] = system: Enterococcus faecalis (ATCC14506); conditions: 90% inhibitory concentration for bacterial growth, 37° C., resazurin fluorescence, read-out: IC90 (μg/ml) EFA 14506
Protocol: as §1, §2, §3, §4

[11] = system: Bacillus subtilis (ATCC43639); conditions: 90% inhibitory concentration for bacterial growth, 37° C., resazurin fluorescence, read-out: IC90 (μg/ml) BSU 43639
Protocol: as §1, §2, §3, §4

[12] = system: Streptococcus pneumoniae (ATCC6305); conditions: 90% inhibitory concentration for bacterial growth, 37° C., resazurin fluorescence, read-out: IC90 (μg/ml) SPN 6305
Protocol: as §1, §2, §3, §4

[13] = system: Escherichia coli (ATCC35218); conditions: 90% inhibitory concentration for bacterial growth, 37° C., resazurin fluorescence, read-out: IC90 (μg/ml) ECO 35218
Protocol: as §1, §2, §3, §4

[14] = system: Escherichia coli (ATCC25922); conditions: 90% inhibitory concentration for bacterial growth, 37° C., resazurin fluorescence, read-out: IC90 (μg/ml) ECO 25922
Protocol: as §1, §2, §3, §4

[15] = system: Escherichia coli (ATCC1403); conditions: 90% inhibitory concentration for bacterial growth, 37° C., resazurin fluorescence, read-out: IC90 (μg/ml) ECO 1403
Protocol: as §1, §2, §3, §4

Row | IC90 [1] | IC90 [2] | IC90 [3] | IC90 [4] | IC90 [5] | IC90 [6] | IC90 [7] | IC90 [9] | IC90 [10] | IC90 [11] | IC90 [12] | IC90 [13] | IC90 [14] | IC90 [15] | SMILES | IC90 [8]
1 | 11.6 µg/mL (≈ 25.1 µM) | 9.2 µg/mL (≈ 19.9 µM) | 9.2 µg/mL (≈ 19.9 µM) | 9.2 µg/mL (≈ 19.9 µM) | 9.2 µg/mL (≈ 19.9 µM) | 11.6 µg/mL (≈ 25.1 µM) | 9.2 µg/mL (≈ 19.9 µM) | 11.6 µg/mL (≈ 25.1 µM) | 8.2 µg/mL (≈ 17.7 µM) | 9.2 µg/mL (≈ 19.9 µM) | 11.6 µg/mL (≈ 25.1 µM) | – | – | – | COc1nc2cccc(C(O)(CCN(C)C)c3cccc4ccccc34)c2cc1-c1ccccc1 (stereo not drawn) [Compound 2] | 11.6 µg/mL (≈ 25.1 µM)
2 | 11.6 µg/mL (≈ 25.1 µM) | 9.2 µg/mL (≈ 19.9 µM) | 9.2 µg/mL (≈ 19.9 µM) | 9.2 µg/mL (≈ 19.9 µM) | 11.6 µg/mL (≈ 25.1 µM) | 11.6 µg/mL (≈ 25.1 µM) | 9.2 µg/mL (≈ 19.9 µM) | 11.6 µg/mL (≈ 25.1 µM) | – | 11.6 µg/mL (≈ 25.1 µM) | 5.2 µg/mL (≈ 11.2 µM) | – | – | – | COc1nc2cccc(C(O)(CCN(C)C)c3ccc4ccccc4c3)c2cc1-c1ccccc1 (stereo not drawn) [Compound 3] | 11.6 µg/mL (≈ 25.1 µM)
3 | 11.4 µg/mL (≈ 25.2 µM) | 9 µg/mL (≈ 19.9 µM) | 9 µg/mL (≈ 19.9 µM) | 9 µg/mL (≈ 19.9 µM) | 9 µg/mL (≈ 19.9 µM) | 11.4 µg/mL (≈ 25.2 µM) | 9 µg/mL (≈ 19.9 µM) | 11.4 µg/mL (≈ 25.2 µM) | – | 11.4 µg/mL (≈ 25.2 µM) | 11.4 µg/mL (≈ 25.2 µM) | – | – | – | COc1nc2cccc(C(O)(CCN(C)C)c3cc4ccccc4o3)c2cc1-c1ccccc1 (stereo not drawn) [Compound 6] | 10.1 µg/mL (≈ 22.3 µM)
4 | 11.8 µg/mL (≈ 22.4 µM) | 13.3 µg/mL (≈ 25.2 µM) | 10.5 µg/mL (≈ 19.9 µM) | 10.5 µg/mL (≈ 19.9 µM) | 10.5 µg/mL (≈ 19.9 µM) | 10.5 µg/mL (≈ 19.9 µM) | 10.5 µg/mL (≈ 19.9 µM) | 10.5 µg/mL (≈ 19.9 µM) | 11.8 µg/mL (≈ 22.4 µM) | – | 13.3 µg/mL (≈ 25.2 µM) | – | – | – | COc1nc2c(C(O)(CCN(C)C)c3cc(F)cc(F)c3)cc(Br)cc2cc1-c1ccccc1 (stereo not drawn) [Compound 9] | 11.8 µg/mL (≈ 22.4 µM)
5 | 12.1 µg/mL (≈ 22.3 µM) | 10.8 µg/mL (≈ 19.9 µM) | 10.8 µg/mL (≈ 19.9 µM) | 10.8 µg/mL (≈ 19.9 µM) | 10.8 µg/mL (≈ 19.9 µM) | 13.6 µg/mL (≈ 25.1 µM) | 10.8 µg/mL (≈ 19.9 µM) | 13.6 µg/mL (≈ 25.1 µM) | 10.8 µg/mL (≈ 19.9 µM) | 13.6 µg/mL (≈ 25.1 µM) | 12.1 µg/mL (≈ 22.3 µM) | – | – | – | COc1nc2c(C(O)(CCN(C)C)c3cc(F)cc(F)c3)cc(Br)cc2cc1Cc1ccccc1 (stereo not drawn) [Compound 12] | 12.1 µg/mL (≈ 22.3 µM)
6 | 12.9 µg/mL (≈ 22.3 µM) | 11.5 µg/mL (≈ 19.9 µM) | 14.5 µg/mL (≈ 25.1 µM) | 11.5 µg/mL (≈ 19.9 µM) | 14.5 µg/mL (≈ 25.1 µM) | 14.5 µg/mL (≈ 25.1 µM) | 11.5 µg/mL (≈ 19.9 µM) | 14.5 µg/mL (≈ 25.1 µM) | – | 14.5 µg/mL (≈ 25.1 µM) | 14.5 µg/mL (≈ 25.1 µM) | – | – | – | CN(C)CCC(O)(c1cc(F)cc(F)c1)c1cc(Br)cc2cc(Cc3ccccc3)c(-n3ccnc3)nc12 (stereo not drawn) [Compound 19] | 14.5 µg/mL (≈ 25.1 µM)
7 | 13 µg/mL (≈ 22.4 µM) | – | 14.6 µg/mL (≈ 25.2 µM) | 14.6 µg/mL (≈ 25.2 µM) | 11.6 µg/mL (≈ 20 µM) | 14.6 µg/mL (≈ 25.2 µM) | 11.6 µg/mL (≈ 20 µM) | 14.6 µg/mL (≈ 25.2 µM) | – | 14.6 µg/mL (≈ 25.2 µM) | 14.6 µg/mL (≈ 25.2 µM) | 11.6 µg/mL (≈ 20 µM) | 14.6 µg/mL (≈ 25.2 µM) | 13 µg/mL (≈ 22.4 µM) | CN(C)CCC(O)(c1cccs1)c1cc(Br)cc2cc(Cc3ccccc3)c(N3CCN(C)CC3)nc12 (stereo not drawn) [Compound 20] | 46 µg/mL (≈ 79.4 µM)
8 | 11.7 µg/mL (≈ 22.3 µM) | 10.5 µg/mL (≈ 20 µM) | 10.5 µg/mL (≈ 20 µM) | 10.5 µg/mL (≈ 20 µM) | 10.5 µg/mL (≈ 20 µM) | 10.5 µg/mL (≈ 20 µM) | 10.5 µg/mL (≈ 20 µM) | 10.5 µg/mL (≈ 20 µM) | 10.5 µg/mL (≈ 20 µM) | 10.5 µg/mL (≈ 20 µM) | 10.5 µg/mL (≈ 20 µM) | – | – | – | CN(C)CCC(O)(c1cccs1)c1cc(Br)cc2cc(Cc3ccccc3)c(N(C)C)nc12 (stereo not drawn) [Compound 46] | 9.3 µg/mL (≈ 17.7 µM)
9 | 56.3 µg/mL (≈ 100 µM) | – | 56.3 µg/mL (≈ 100 µM) | 44.7 µg/mL (≈ 79.5 µM) | 44.7 µg/mL (≈ 79.5 µM) | 56.3 µg/mL (≈ 100 µM) | 22.4 µg/mL (≈ 39.8 µM) | 56.3 µg/mL (≈ 100 µM) | – | 56.3 µg/mL (≈ 100 µM) | 56.3 µg/mL (≈ 100 µM) | – | 56.3 µg/mL (≈ 100 µM) | – | CN(C)CCOc1nc2c(C(O)(CCN(C)C)c3ccccc3)cc(Br)cc2cc1Cc1ccccc1 (stereo not drawn) [Compound 49] | 56.3 µg/mL (≈ 100 µM)
10 | 54.4 µg/mL (≈ 79.4 µM) | 17.2 µg/mL (≈ 25.1 µM) | 17.2 µg/mL (≈ 25.1 µM) | 15.3 µg/mL (≈ 22.3 µM) | 15.3 µg/mL (≈ 22.3 µM) | 17.2 µg/mL (≈ 25.1 µM) | 15.3 µg/mL (≈ 22.3 µM) | 10.9 µg/mL (≈ 15.9 µM) | 54.4 µg/mL (≈ 79.4 µM) | 10.9 µg/mL (≈ 15.9 µM) | 17.2 µg/mL (≈ 25.1 µM) | 15.3 µg/mL (≈ 22.3 µM) | – | – | CN(C)CCC(O)(c1ccccc1)c1cc(Br)cc2cc(Cc3ccccc3)c(NCCC(c3ccccc3)c3ccccc3)nc12 (stereo not drawn) [Compound 59] | 54.4 µg/mL (≈ 79.4 µM)
